Measurements reported in PubChem BioAssay (NCI).
“And” between values parts separate entries of the source, which are not always exact repeats. Equal entries are not always repeated.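 Grown in 96-well plates, cells were treated for 48 hours with each compound at five concentrations. Insufficient inhibition: endpoint recorded as highest concentration tested. GI50: concentration for 50% inhibition of growth. Definition used: TGI = concentration required for complete inhibition of growth.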

Tests used:
Assay in all cases: growth of human tumour cells (NCI), 48 h
RPMI-8226 leukemia = tested on: RPMI-8226 leukemia
NCI-H23 lung = tested on: NCI-H23 lung
OVCAR-3 ovarian = tested on: OVCAR-3 ovarian
RXF 393 renal = tested on: RXF 393 renal
SF-295 CNS = tested on: SF-295 CNS
MALME-3M melanoma = tested on: MALME-3M melanoma
SK-MEL-5 melanoma = tested on: SK-MEL-5 melanoma
TK-10 renal = tested on: TK-10 renal
LXFL 529 NSCLC = tested on: LXFL 529 NSCLC

| SMILES | GI50 (RPMI-8226 leukemia) | TGI (RPMI-8226 leukemia) [µM] | GI50 (NCI-H23 lung) [µM] | TGI (NCI-H23 lung) [µM] | GI50 (OVCAR-3 ovarian) [µM] | TGI (OVCAR-3 ovarian) [µM] | GI50 (RXF 393 renal) | TGI (RXF 393 renal) [µM] | GI50 (SF-295 CNS) [µM] | TGI (SF-295 CNS) [µM] | GI50 (MALME-3M melanoma) [µM] | TGI (MALME-3M melanoma) [µM] | GI50 (SK-MEL-5 melanoma) [µM] | TGI (SK-MEL-5 melanoma) [µM] | GI50 (TK-10 renal) [µM] | TGI (TK-10 renal) [µM] | TGI (LXFL 529 NSCLC) [µM] |
| --- | --- | --- | --- | --- | --- | --- | --- | --- | --- | --- | --- | --- | --- | --- | --- | --- | --- |
| Cc1ccc(Sc2cc3c(oc2=O)-c2ccccc2OC3O)cc1 (configuration not stated) | 23.2 µM | 79.7 | 27.7 | 55.3 | 33.3 | 91.4 | 26.8 µM | 62.2 | 30.2 | 67.5 | 25 | 49.2 | 17.1 | 32.9 | 33.8 | 84.9 | – |
| COc1cccc2c1n([O-])c1cccc(OC)c1[n+]2=O | 4.67 µM | 25 | 4.82 | 28 | 17.6 | > 100 | 19.3 µM | > 100 | 3.03 | 18.5 | 8.05 | 25.7 | 3.59 | 14.9 | 24.3 | > 100 | – |
| CCN(c1cc(C#CCN2CCOCC2)cc(C(=O)NCc2c(C)cc(C)[nH]c2=O)c1C)C1CCC(N(C)CCOC)CC1 (configuration not stated) | 7.13 µM | > 100 | > 100 | > 100 | > 100 | > 100 | > 100 µM | > 100 | > 100 | > 100 | > 100 | > 100 | > 100 | > 100 | > 100 | > 100 | – |
| CCN(CC)c1ccc(/C=C/C=C2\NC(=O)NC2=O)cc1 | 2.68 µM | 32.4 | 11.2 | > 100 | 1.95 | 5.29 | 1.03 µM | 5.93 | 1.54 | > 100 | 28.7 | > 100 | 1.17 | 13.7 | 6.54 | 64.2 | – |
| CC#Cc1nc(Nc2cc(C)[nH]n2)c2ccccc2n1 | 6.95 µM and 3.32 µM | 22.2 | 5.27 | 41.6 | 3.38 | 12.1 | 7.57 µM and 1.67 µM | 4.96 | 12.3 | 34.5 | 7.24 | 25.2 | 1.76 | 3.61 | 3.57 | 21.2 | – |
| O=c1oc2c(C(F)(F)F)cccc2cc1-c1csc(Nc2ccc(OCCF)cc2)n1 | 0.0406 µM | 42.7 | 0.0544 | 23.4 | 0.0357 | 5.75 | 0.0343 µM | 18.2 | 0.0286 | 12.7 | 6.48 | > 91.7 | 0.0658 | 0.497 | 0.0838 | 81 | – |
| CC1=NN(c2nc(N)nc(/C=C\c3ccc([N+](=O)[O-])s3)n2)C(C)(C)C1 | > 100 µM | > 100 | > 100 | > 100 | > 100 | > 100 | > 100 µM | > 100 | > 100 | > 100 | > 100 | > 100 | 40.9 | > 100 | > 100 | > 100 | – |
| CC(C)(C)c1ccc(NS(=O)(=O)c2ccc3nc(NC(=O)c4cnccn4)[nH]c3c2)cc1 | 4.51 µM | > 100 | 3.19 | 15.4 | 0.654 | 3.03 | 1.41 µM | 4.28 | 0.743 | 5.09 | 1.06 | 13.1 | 1.07 | 6.01 | 8.84 | 23.4 | – |
| NNC(=O)C(=O)N/N=C(\CCC(=O)Nc1ccc(Cl)cc1)Cc1nc2ccccc2s1 | – | > 100 | – | > 100 | – | > 100 | – | > 100 | – | > 100 | – | > 100 | – | 43.6 | – | > 100 | > 100 |
| COc1ccc(Cn2cc3c(c2-c2cc(OC)c(OC)c(OC)c2)CCc2cnoc2-3)cc1 | 0.356 µM | – | 0.388 | > 100 | 0.189 | 0.484 | 0.26 µM | > 100 | 0.129 | 0.821 | 0.239 | > 100 | 0.276 | 4.99 | 0.842 | > 100 | – |
| CC(=O)c1cc(O)c2ccccc2c1O | 22.7 µM | 60.5 | 20.2 | 53.7 | 17.7 | 37.5 | 19.5 µM | 33.8 | 18.5 | 38.8 | 18.2 | 34.2 | 16.3 | 30.2 | 17 | 33.1 | – |
| Nc1ncc(-c2cccc(S(N)(=O)=O)c2)c2scc(-c3ccc(F)c(Cl)c3)c12 | 4.92 µM | 14.9 | 7.05 | > 21 | 5.42 | 12.5 | 3.79 µM | 9.43 | 5.66 | 13.8 | 6.94 | 16.6 | 4 | 7.46 | 6.58 | 16.4 | – |
| C=CC(COC(c1ccccc1)(c1ccccc1)c1ccccc1)N(CC)CC (configuration not stated) | 2.99 µM | 7.8 | 6.07 | 19.9 | 7.04 | 20.3 | 2.92 µM | 8.21 | 1.74 | 3.78 | 1.89 | 4.3 | 1.95 | 3.98 | 3.19 | 10.8 | – |
| CCCCCCCCCCCCCCCC1=NC(C)(C)CN1C(C)C | 1.04 µM | 2.82 | 1.49 | 2.81 | 0.824 | 2.09 | 1.52 µM | 2.96 | 1.74 | 3.3 | 1.64 | 3.35 | 1.68 | 3.04 | 1.44 | 2.74 | – |
| CC(=O)c1nc2ccccc2n1CC(=O)c1cccc(Cl)c1 | 0.255 µM | 14.3 | 0.522 | > 47.5 | 0.239 | > 100 | 0.264 µM | 0.88 | 1.27 | > 23.2 | 0.517 | > 100 | 0.175 | 13.6 | 3.22 | 99.7 | – |
